Assay results published in patent US20230192700A1, “PYRAZOLOPYRAZINES ACTING ON CANCERS VIA INHIBITION OF CDK12” (Bayer Aktiengesellschaft, priority 2020, published 2023).
pIC50: −log10 of the molar value.

Columns and labels:
CDK2/CyclinE = biological target: T1, CDK2/CyclinE (Homo sapiens, UniProt P24941); test: CDK2/CycE kinase assay (TR-FRET); format: biochemical; conditions: 2 mM ATP (high ATP); median; read-out: CDK2/CyclinE, 2 mM ATP (high ATP) IC50 - [mol/l] (median)
T1 construct: GST; purchased ProQinase GmbH (Freiburg, Germany); host or cells: insect cells (Sf9)
Outline: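 GST-tagged human CDK2/CycE (Sf9-expressed, ~10 ng/mL) was preincubated 15 min with compound, then run 25 min at 22 °C with 2 mM ATP and 0.75 μM biotinylated peptide, pH 8.0. Phospho-substrate was detected by TR-FRET (anti-RB pSer807/811, Eu-anti-mouse, streptavidin-XL665), 665/620 nm ratio, normalised to no-inhibitor and no-enzyme controls.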

CDK12 = biological target: T2, CDK12 (Homo sapiens, UniProt Q9NYV4); test: CDK12 nuclear protein level: immunofluorescence/high content analysis in CAL-120 cells; format: cell-based; conditions: for DC50: CAL-120 cells, 24 h, nuclear CDK12 staining intensity, median, read-out: CDK12 degradation IF DC50 - [mol/l] (median); for (IC50 CDK12 high ATP) to (Degradation DC50 CDK12) ratio: ratio of IC50 CDK12 hATP (2 mM ATP) to DC50 CDK12 (IF, CAL-120)
T2 construct: endogenous in cells; host or cells: CAL-120 human breast cancer cells (DSMZ ACC 459)
T2 sequence (Q9NYV4 whole entry): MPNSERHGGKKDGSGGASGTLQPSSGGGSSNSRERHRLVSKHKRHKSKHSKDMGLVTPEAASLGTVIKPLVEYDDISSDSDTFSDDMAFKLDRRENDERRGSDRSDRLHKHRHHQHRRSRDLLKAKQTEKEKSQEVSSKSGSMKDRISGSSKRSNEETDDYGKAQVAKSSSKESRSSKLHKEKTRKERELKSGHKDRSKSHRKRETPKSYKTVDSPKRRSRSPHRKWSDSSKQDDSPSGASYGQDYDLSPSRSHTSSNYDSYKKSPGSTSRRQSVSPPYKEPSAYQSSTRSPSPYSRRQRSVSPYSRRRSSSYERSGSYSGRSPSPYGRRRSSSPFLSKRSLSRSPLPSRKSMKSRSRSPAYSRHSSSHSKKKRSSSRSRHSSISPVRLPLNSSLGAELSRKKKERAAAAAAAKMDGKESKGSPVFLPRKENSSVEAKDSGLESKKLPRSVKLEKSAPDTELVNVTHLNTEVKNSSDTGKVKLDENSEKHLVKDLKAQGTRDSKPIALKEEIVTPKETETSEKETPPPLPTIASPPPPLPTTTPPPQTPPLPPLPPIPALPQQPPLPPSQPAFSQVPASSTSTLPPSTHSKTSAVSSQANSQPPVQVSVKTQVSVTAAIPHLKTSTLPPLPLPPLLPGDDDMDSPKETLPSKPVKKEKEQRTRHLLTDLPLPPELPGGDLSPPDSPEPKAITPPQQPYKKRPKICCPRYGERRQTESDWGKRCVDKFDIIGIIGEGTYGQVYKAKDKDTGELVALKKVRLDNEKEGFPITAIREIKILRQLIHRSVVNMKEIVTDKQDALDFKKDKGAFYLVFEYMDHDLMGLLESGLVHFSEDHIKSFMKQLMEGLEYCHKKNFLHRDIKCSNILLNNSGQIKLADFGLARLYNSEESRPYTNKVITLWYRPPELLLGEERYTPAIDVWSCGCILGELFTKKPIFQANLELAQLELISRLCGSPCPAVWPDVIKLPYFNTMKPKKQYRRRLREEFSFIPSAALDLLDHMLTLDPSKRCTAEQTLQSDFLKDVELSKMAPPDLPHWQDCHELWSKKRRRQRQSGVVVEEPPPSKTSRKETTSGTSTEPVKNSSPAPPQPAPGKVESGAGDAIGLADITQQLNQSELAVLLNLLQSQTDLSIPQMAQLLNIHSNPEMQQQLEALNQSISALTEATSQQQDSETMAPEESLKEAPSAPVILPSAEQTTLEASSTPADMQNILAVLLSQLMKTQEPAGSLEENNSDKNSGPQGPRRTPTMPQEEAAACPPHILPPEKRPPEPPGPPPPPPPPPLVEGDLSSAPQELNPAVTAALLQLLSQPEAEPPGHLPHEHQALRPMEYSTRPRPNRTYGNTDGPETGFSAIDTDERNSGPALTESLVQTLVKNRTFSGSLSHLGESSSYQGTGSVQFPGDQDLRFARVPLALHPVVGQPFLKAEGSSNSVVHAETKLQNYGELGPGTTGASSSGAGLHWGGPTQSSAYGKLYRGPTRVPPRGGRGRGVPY
T2 sequence (O75909 whole entry partner): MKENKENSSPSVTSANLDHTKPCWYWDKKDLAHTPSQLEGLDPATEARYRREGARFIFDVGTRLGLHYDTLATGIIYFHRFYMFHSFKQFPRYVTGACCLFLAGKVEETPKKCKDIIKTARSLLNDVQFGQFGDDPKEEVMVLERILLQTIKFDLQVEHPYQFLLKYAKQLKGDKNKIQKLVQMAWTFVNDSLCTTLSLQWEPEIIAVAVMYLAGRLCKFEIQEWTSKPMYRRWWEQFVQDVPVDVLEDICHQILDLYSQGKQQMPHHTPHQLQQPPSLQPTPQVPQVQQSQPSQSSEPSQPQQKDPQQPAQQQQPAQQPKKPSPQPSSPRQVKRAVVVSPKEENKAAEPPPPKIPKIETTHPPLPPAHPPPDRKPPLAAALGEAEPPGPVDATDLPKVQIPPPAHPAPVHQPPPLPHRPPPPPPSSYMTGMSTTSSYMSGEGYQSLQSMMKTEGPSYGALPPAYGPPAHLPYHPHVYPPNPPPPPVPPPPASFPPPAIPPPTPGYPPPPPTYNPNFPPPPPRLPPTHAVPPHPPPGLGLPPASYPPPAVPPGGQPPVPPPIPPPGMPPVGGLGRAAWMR
Outline: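 Cells were exposed to compounds in dose-response for 24 h at 37 °C, then PFA-fixed, immunostained for CDK12 and counterstained with Hoechst before confocal imaging. Nuclear CDK12 intensity was normalized to DMSO and control. DC50 is the concentration giving 50% reduction of nuclear staining.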

pIC50 (CDK2/CyclinE) | DC50 (CDK12) [nM] | (IC50 CDK12 high ATP) to (Degradation DC50 CDK12) ratio (CDK12) | Structure (SMILES)
< 4.70 | 33.6 | >596 | CN1CCC(n2nc(NCc3nc4ccccc4[nH]3)c3ncc(C4CC4)nc32)C1 (single isomer, unassigned) [Example 78, (+) or (−)-N-[(1H-benzimidazol-2-yl)methyl]-6-cyclopropyl-1-(1-methylpyrrolidin-3-yl)-1H-pyrazolo[3,4-b]pyrazin-3-amine]
< 4.70 | 38.2 | >534 | c1ccc2[nH]c(CNc3nn(C4CCCC4)c4nc(C5CC5)cnc34)nc2c1 [Example 39, N-[(1H-benzimidazol-2-yl)methyl]-1-cyclopentyl-6-cyclopropyl-1H-pyrazolo[3,4-b]pyrazin-3-amine]
< 4.70 | 49.3 | – | CC1(C)CC(n2nc(NCc3nc4ccccc4[nH]3)c3ncc(C4CC4)nc32)CC(C)(C)O1 [Example 52, N-[(1H-benzimidazol-2-yl)methyl]-6-cyclopropyl-1-(2,2,6,6-tetramethyloxan-4-yl)-1H-pyrazolo[3,4-b]pyrazin-3-amine]
< 4.70 | 11.1 | >2322 | CC1COCCC1n1nc(NCc2nc3ccccc3[nH]2)c2ncc(C3CC3)nc21 (racemic) [Example 42, (±)-cis/trans-N-[(1H-benzimidazol-2-yl)methyl]-6-cyclopropyl-1-(3-methyloxan-4-yl)-1H-pyrazolo[3,4-b]pyrazin-3-amine]
< 4.70 | 40.8 | >4901 | c1ccc2[nH]c(CNc3nn(C4CCOC4)c4nc(C5CC5)cnc34)nc2c1 (racemic) [Example 10, (±)-N-[(1H-benzimidazol-2-yl)methyl]-6-cyclopropyl-1-[oxolan-3-yl]-1H-pyrazolo[3,4-b]pyrazin-3-amine]
< 4.70 | 46.9 | – | c1ccc2[nH]c(CNc3nn(C4COC4)c4nc(C5CC5)cnc34)nc2c1 [Example 55, N-[(1H-benzimidazol-2-yl)methyl]-6-cyclopropyl-1-(oxetan-3-yl)-1H-pyrazolo[3,4-b]pyrazin-3-amine]
< 4.70 | 12.6 | >1589 | CN1CCCC(n2nc(NCc3nc4ccccc4[nH]3)c3ncc(C4CC4)nc32)CC1 (single isomer, unassigned) [Example 37, (+) or (−)-N-[(1H-benzimidazol-2-yl)methyl]-6-cyclopropyl-1-[(4R*)-1-methylazepan-4-yl]-1H-pyrazolo[3,4-b]pyrazin-3-amine]
< 4.70 | 14.2 | – | CN1CCCC(n2nc(NCc3nc4ccccc4[nH]3)c3ncc(C4CC4)nc32)CC1 (racemic) [Example 34, (±)-N-[(1H-benzimidazol-2-yl)methyl]-6-cyclopropyl-1-(1-methylazepan-4-yl)-1H-pyrazolo[3,4-b]pyrazin-3-amine]
< 4.70 | 13.1 | – | c1ccc2[nH]c(CNc3nn(C4CC5(COC5)C4)c4nc(C5CC5)cnc34)nc2c1 [Example 54, N-[(1H-benzimidazol-2-yl)methyl]-6-cyclopropyl-1-(2-oxaspiro[3.3]heptan-6-yl)-1H-pyrazolo[3,4-b]pyrazin-3-amine]
< 4.70 | 84 | >238 | c1ccc2[nH]c(CNc3nn(C4CCOCC4)c4nc(C5CC5)cnc34)nc2c1 [Example 16, N-[(1H-benzimidazol-2-yl)methyl]-6-cyclopropyl-1-(oxan-4-yl)-1H-pyrazolo[3,4-b]pyrazin-3-amine]
< 4.70 | 29.2 | >685 | c1ccc2[nH]c(CNc3nn(C4CCC4)c4nc(C5CC5)cnc34)nc2c1 [Example 49, N-[(1H-benzimidazol-2-yl)methyl]-1-cyclobutyl-6-cyclopropyl-1H-pyrazolo[3,4-b]pyrazin-3-amine]

More lines, now with the values behind:

Structure (SMILES) | pIC50 (CDK2/CyclinE) | DC50 (CDK12) [nM] | (IC50 CDK12 high ATP) to (Degradation DC50 CDK12) ratio (CDK12)
OCCCn1nc(NCc2nc3ccccc3[nH]2)c2ncc(C3CC3)nc21 [Example 60, 3-(3-{[(1H-benzimidazol-2-yl)methyl]amino}-6-cyclopropyl-1H-pyrazolo[3,4-b]pyrazin-1-yl)propan-1-ol] | < 4.70 | 41.2 | >102
CC(C)(O)Cn1nc(NCc2nc3ccccc3[nH]2)c2ncc(C3CC3)nc21 [Example 69, 1-(3-{[(1H-benzimidazol-2-yl)methyl]amino}-6-cyclopropyl-1H-pyrazolo[3,4-b]pyrazin-1-yl)-2-methylpropan-2-ol] | < 4.70 | 99.4 | >101
CN1CCC(n2nc(NCc3nc4cc(F)ccc4[nH]3)c3ncc(C4CC4)nc32)CC1 [Example 4, 6-cyclopropyl-N-[(5-fluoro-1H-benzimidazol-2-yl)methyl]-1-(1-methylpiperidin-4-yl)-1H-pyrazolo[3,4-b]pyrazin-3-amine] | < 4.70 | 4.3 | –
CN(C)CCn1nc(NCc2nc3ccccc3[nH]2)c2ncc(C3CC3)nc21 [Example 68, N-[(1H-benzimidazol-2-yl)methyl]-6-cyclopropyl-1-[2-(dimethylamino)ethyl]-1H-pyrazolo[3,4-b]pyrazin-3-amine] | < 4.70 | 29.1 | >687
Cc1ccc2[nH]c(CNc3nn(C4CCN(C)CC4)c4nc(C5CC5)cnc34)nc2c1C [Example 28, 6-cyclopropyl-N-[(4,5-dimethyl-1H-benzimidazol-2-yl)methyl]-1-(1-methylpiperidin-4-yl)-1H-pyrazolo[3,4-b]pyrazin-3-amine] | < 4.70 | 10.6 | >1880
OC1(Cn2nc(NCc3nc4ccccc4[nH]3)c3ncc(C4CC4)nc32)CCC1 [Example 72, 1-[(3-{[(1H-benzimidazol-2-yl)methyl]amino}-6-cyclopropyl-1H-pyrazolo[3,4-b]pyrazin-1-yl)methyl]cyclobutan-1-ol] | < 4.70 | 18.7 | >536
CN1CCC(n2nc(NCc3nc4cc(Cl)ccc4[nH]3)c3ncc(C4CC4)nc32)CC1 [Example 22, N-[(5-chloro-1H-benzimidazol-2-yl)methyl]-6-cyclopropyl-1-(1-methylpiperidin-4-yl)-1H-pyrazolo[3,4-b]pyrazin-3-amine] | < 4.70 | 11.8 | >1695
CN1CCC(n2nc(NCc3nc4c(F)c(F)ccc4[nH]3)c3ncc(C4CC4)nc32)CC1 [Example 9, 6-cyclopropyl-N-[(4,5-difluoro-1H-benzimidazol-2-yl)methyl]-1-(1-methylpiperidin-4-yl)-1H-pyrazolo[3,4-b]pyrazin-3-amine] | < 4.70 | 8.07 | >2478
COCCCn1nc(NCc2nc3ccccc3[nH]2)c2ncc(C3CC3)nc21 [Example 61, N-[(1H-benzimidazol-2-yl)methyl]-6-cyclopropyl-1-(3-methoxypropyl)-1H-pyrazolo[3,4-b]pyrazin-3-amine] | < 4.70 | 163 | >123
Fc1cccc2[nH]c(CNc3nn(C4CCOCC4)c4nc(C5CC5)cnc34)nc12 [Example 23, 6-cyclopropyl-N-[(4-fluoro-1H-benzimidazol-2-yl)methyl]-1-(oxan-4-yl)-1H-pyrazolo[3,4-b]pyrazin-3-amine] | 4.79 | 31.7 | 388
COCCC(C)n1nc(NCc2nc3ccccc3[nH]2)c2ncc(C3CC3)nc21 (racemic) [Example 57, (±)-N-[(1H-benzimidazol-2-yl)methyl]-6-cyclopropyl-1-(4-methoxybutan-2-yl)-1H-pyrazolo[3,4-b]pyrazin-3-amine] | < 4.70 | 170 | >118
